The record followed here is US7977372B2, “Ortho aminoamides for the treatment of cancer” (Hoffmann-La Roche Inc., priority 2009, dated 2011).

SMILES strings stand for the structures.

Assay [1] concerns SMMC-7721 liver cancer cells. Briefly: Growth inhibition of cancer cell lines (MTS / WST assay), SMMC-7721. Type of assay: cell-based. The conditions noted are these: Homo sapiens, SMMC-7721, 72 h; for IC90: read-out: SMMC GI90. The procedure:
(§1) The novel compounds of the present invention were tested for their ability to inhibit growth of various cancer cell lines using in vitro growth inhibition assays described below.
(§2) Cells were seeded in 96-well culture plates (200 microliters/well at different seeding concentrations depending on cell type) and incubated overnight at 37 degrees Celsius in 5% CO2. After adding compound dilutions to the cells (DMSO concentration kept below 0.5%), the cells were incubated at 37 degrees Celsius in 5% CO2 for 72 hours. The effects on proliferation were determined by addition of MTS reagent (Promega) according to the manufacturer's instruction, followed by incubation for 2 hours at 37 degrees Celsius in 5% CO2, and finally recording the absorbance at 490 nm using an ELISA plate reader.
(§3) Similar to MTS assay except that the developer is the CCK-8 reagent (Dojindo) and the plate reader is set to 450 nm absorbance.
(§4) GI50 and GI90 values against SGC-7901 gastric cancer cells and SMMC-7721 liver cancer cells for specific representative compounds can be found in Table 19.

The test system of assay [2] is histone deacetylase (HeLa nuclear extract). The experiment in a line: HeLa extract HDAC fluorometric assay. Type of assay: biochemical. The conditions noted are these: compound at 30 micromolar; relative to SNDX-275. On the procedure:
Novel compounds were tested for their ability to inhibit histone deacetylase using an in vitro deacetylation assay. The enzyme source for this assay was HeLa nuclear extract. The substrate consisted of a commercial product containing an acetylated lysine side chain (both HeLa extract and substrate are available commercially from BIOMOL Research Laboratories, Inc., Plymouth Meeting, Pa.). After deacetylation of the substrate by incubation with HeLa nuclear extract, subsequent exposure to a developing reagent produces a fluorophore that is directly proportional to the level of deacetylation. Using the substrate concentration at the Km for the HeLa nuclear extract, the deacetylation assay was performed in the presence of novel compounds at 30 micromolar and the percent enzyme inhibition relative to a known reference HDAC inhibitor (SNDX-275) was determined. […] Inhibitory activity for specific representative compounds can be found in Table 19.

For assay [3], the system named is SGC-7901 gastric cancer cells. Briefly: Growth inhibition of cancer cell lines (MTS / WST assay), SGC-7901. The conditions noted are these: Homo sapiens, SGC-7901, 72 h; for IC90: read-out: SGC GI90. Type of assay: cell-based. On the procedure:
as §1, §2, §3, §4

By GI50 is commonly meant the concentration at which growth is held to half of that of the control. A higher GI50 goes with less potent growth inhibition. In the case of `CC(C)(CO)N1CC(C(=O)Nc2ccc(Cl)cc2)C(c2ccc(/C=C/C(=O)Nc3ccccc3N)cc2)C1` (racemic) [Example 26, rac-(trans-3,4)-4-{4-[2-(2-Amino-phenylcarbamoyl)-vinyl]-phenyl}-1-(2-hydroxy-1,1-dimethyl-ethyl)-pyrrolidine-3-carboxylic acid (4-chloro-phenyl)-amide], in assay [1], the GI50 came out at 640 nM and the IC90 turned out to be 1530 nM. Moreover, the “HD RP30 (relative inhibitory potency compared with SNDX-275)” value in assay [2] was 1.38. For the same compound, in assay [3], halving of growth (GI50) required 290 nM and the IC90 amounted to 1040 nM.
`COCCN1CC(C(=O)Nc2ccc(Cl)cc2)C(c2ccc(/C=C/C(=O)Nc3ccccc3N)cc2)C1` (stereo not shown) [Example 21-15]: the GI50 was found to be 1340 nM in assay [1] and 600 nM in assay [3]. For the same compound, the IC90 in assay [1] amounted to 3320 nM; in assay [3], 2950 nM. The “HD RP30 (relative inhibitory potency compared with SNDX-275)” value in assay [2] was 1.47.
The like results for `Cc1cccc(NC(=O)C2CN(C)CC2c2ccc(/C=C/C(=O)Nc3ccccc3N)cc2)c1` (stereo not shown) [Example 5-28] were, in that order, 760 nM, 310 nM, 2010 nM, 1730 nM and 1.70.
The like results for `CN1CC(C(=O)Nc2ccc(F)cc2)C(c2ccc(/C=C/C(=O)Nc3ccccc3N)cc2)C1` (racemic) [Example 5, rac-(trans-3,4)-4-{4-[2-(2-Amino-phenylcarbamoyl)-vinyl]-phenyl}-1-methyl-pyrrolidine-3-carboxylic acid (4-fluoro-phenyl)-amide] were, in that order, 650 nM, 390 nM, 1950 nM, 1700 nM and 1.61.
The matching figures for `CN1C[C@@H](C(=O)Nc2ccc(Cl)cc2)[C@H](c2ccc(/C=C/C(=O)Nc3ccccc3N)cc2)C1` [Example 5-2]: 660 nM, 380 nM, 1980 nM, 1130 nM and 1.73.
